Test results: ChEMBL document CHEMBL5465560, “Selectivity Literature for EUbOPEN Chemogenomic Library” (2024)

Tests used:
[1] = target: Serine/threonine-protein kinase N2 (Homo sapiens, UniProt Q16513); test: Selectivity interaction (Millipore kinase profiler) EUB0000124b PKN2; settings: at 10 µM
[2] = target: T1, Ephrin type-A receptor 8 (Homo sapiens) (UniProt P29322); test: Selectivity interaction (KinomeScan (DiscoverX)) EUB0000666a EPHA8; settings: at 10 µM
T1 sequence (whole entry): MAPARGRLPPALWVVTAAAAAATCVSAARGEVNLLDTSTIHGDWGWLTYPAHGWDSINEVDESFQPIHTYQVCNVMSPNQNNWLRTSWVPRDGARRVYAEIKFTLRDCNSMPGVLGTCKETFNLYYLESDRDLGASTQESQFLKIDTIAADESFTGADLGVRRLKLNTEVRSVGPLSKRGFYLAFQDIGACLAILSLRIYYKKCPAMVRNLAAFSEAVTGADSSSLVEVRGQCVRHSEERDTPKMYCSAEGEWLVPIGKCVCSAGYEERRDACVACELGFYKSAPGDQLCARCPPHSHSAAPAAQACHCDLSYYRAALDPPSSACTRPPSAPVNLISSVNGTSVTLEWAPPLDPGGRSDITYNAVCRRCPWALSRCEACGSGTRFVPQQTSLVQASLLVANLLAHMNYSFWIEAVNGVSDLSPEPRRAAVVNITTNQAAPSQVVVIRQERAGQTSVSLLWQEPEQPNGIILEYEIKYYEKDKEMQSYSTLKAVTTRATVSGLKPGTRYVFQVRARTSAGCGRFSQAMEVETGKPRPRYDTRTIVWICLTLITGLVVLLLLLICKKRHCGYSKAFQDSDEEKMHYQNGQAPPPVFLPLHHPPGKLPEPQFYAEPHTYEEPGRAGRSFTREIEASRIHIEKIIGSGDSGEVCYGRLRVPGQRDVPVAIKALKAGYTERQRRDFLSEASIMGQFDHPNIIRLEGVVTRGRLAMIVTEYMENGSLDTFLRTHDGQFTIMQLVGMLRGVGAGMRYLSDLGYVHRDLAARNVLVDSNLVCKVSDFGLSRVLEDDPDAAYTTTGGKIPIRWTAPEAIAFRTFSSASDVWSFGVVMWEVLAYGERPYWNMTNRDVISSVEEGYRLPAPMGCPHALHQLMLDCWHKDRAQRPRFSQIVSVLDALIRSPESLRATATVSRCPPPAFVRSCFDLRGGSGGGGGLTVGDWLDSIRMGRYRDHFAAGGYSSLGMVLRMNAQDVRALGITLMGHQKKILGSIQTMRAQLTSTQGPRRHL

[3] = system: Epidermal growth factor receptor (Homo sapiens), P00533 [UNDEFINED MUTATION]; test: Selectivity interaction (KinomeScan (DiscoverX)) EUB0000229b EGFR; settings: at 1 µM
[4] = system: Serine/threonine-protein kinase B-raf (Homo sapiens), P15056 [V600E]; test: (§1) Selectivity interaction (KinomeScan (DiscoverX)) EUB0000229b BRAF; settings: at 1 µM
[5] = target: Serine/threonine-protein kinase B-raf (Homo sapiens) (UniProt P15056); test: as §1; settings: at 10 µM
[6] = target: Tyrosine-protein kinase Fer (Homo sapiens) (UniProt P16591); test: Selectivity interaction (KinomeScan (DiscoverX)) EUB0001079a FER; settings: at 1 µM
[7] = target: T2, Dual serine/threonine and tyrosine protein kinase (Homo sapiens) (UniProt Q6XUX3); test: Selectivity interaction (KinomeScan (DiscoverX)) EUB0001079a DSTYK; settings: at 1 µM
T2 sequence (whole entry): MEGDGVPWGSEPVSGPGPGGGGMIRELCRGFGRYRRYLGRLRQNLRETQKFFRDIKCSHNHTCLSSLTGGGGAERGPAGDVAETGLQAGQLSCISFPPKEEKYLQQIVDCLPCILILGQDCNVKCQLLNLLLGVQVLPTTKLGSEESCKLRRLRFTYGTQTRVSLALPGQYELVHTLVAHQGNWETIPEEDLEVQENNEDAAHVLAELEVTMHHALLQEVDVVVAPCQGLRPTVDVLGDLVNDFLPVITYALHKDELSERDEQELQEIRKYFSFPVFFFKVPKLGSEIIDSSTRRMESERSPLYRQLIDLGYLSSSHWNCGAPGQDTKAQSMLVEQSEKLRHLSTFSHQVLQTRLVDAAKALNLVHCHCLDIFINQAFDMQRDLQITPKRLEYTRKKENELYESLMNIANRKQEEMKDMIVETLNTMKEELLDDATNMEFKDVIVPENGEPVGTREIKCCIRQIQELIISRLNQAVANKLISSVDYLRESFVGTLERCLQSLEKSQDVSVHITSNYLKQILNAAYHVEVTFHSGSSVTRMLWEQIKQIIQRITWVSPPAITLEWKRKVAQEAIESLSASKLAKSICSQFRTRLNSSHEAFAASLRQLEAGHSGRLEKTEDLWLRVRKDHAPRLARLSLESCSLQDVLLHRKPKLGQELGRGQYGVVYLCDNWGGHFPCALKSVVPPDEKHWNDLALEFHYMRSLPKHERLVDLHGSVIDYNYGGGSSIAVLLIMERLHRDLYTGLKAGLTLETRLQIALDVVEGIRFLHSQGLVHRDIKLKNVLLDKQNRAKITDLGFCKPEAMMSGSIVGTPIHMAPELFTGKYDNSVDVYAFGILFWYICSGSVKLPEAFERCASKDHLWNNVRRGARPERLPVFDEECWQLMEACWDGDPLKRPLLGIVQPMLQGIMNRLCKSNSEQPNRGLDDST

[8] = target: Phosphatidylinositol 4,5-bisphosphate 3-kinase catalytic subunit beta isoform (Homo sapiens) (UniProt P42338); test: Selectivity interaction (KinomeScan (DiscoverX)) EUB0001079a PIK3CB; settings: at 1 µM
[9] = target: Tyrosine-protein kinase receptor Tie-1 (Homo sapiens) (UniProt P35590); test: Selectivity interaction (KinomeScan (DiscoverX)) EUB0000045b TIE1
Tyrosine-protein kinase receptor Tie-1 (Homo sapiens), sequence (P35590 whole entry): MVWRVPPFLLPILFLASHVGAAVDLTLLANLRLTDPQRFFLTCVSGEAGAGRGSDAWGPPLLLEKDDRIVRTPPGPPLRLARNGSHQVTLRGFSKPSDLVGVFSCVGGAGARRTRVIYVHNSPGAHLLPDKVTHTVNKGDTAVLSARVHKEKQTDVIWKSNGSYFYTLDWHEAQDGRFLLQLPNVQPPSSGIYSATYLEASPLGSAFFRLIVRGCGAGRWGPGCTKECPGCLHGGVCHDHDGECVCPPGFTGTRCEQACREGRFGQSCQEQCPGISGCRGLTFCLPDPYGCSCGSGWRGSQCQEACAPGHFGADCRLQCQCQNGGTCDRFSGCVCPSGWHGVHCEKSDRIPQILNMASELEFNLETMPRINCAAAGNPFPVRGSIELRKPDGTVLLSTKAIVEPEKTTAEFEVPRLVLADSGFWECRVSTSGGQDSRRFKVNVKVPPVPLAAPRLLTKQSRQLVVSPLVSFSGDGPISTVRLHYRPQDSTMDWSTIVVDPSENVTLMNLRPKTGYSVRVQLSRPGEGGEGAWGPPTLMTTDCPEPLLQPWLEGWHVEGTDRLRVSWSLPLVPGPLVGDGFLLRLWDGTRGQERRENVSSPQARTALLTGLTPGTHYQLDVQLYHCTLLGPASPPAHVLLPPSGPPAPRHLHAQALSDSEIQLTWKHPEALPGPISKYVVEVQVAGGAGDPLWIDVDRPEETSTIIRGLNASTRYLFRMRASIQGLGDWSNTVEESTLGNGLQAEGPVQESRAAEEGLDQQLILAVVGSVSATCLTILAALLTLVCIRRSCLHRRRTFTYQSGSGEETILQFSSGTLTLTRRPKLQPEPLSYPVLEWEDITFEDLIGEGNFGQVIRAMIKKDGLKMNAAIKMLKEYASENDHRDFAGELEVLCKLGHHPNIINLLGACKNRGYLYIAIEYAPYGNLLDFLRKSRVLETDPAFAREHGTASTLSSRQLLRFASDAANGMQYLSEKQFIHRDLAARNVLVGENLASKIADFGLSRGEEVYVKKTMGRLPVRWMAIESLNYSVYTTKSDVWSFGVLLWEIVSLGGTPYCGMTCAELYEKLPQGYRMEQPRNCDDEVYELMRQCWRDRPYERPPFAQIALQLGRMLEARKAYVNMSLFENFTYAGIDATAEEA

Tyrosine-protein kinase Fer (Homo sapiens), sequence (P16591 whole entry, looked up): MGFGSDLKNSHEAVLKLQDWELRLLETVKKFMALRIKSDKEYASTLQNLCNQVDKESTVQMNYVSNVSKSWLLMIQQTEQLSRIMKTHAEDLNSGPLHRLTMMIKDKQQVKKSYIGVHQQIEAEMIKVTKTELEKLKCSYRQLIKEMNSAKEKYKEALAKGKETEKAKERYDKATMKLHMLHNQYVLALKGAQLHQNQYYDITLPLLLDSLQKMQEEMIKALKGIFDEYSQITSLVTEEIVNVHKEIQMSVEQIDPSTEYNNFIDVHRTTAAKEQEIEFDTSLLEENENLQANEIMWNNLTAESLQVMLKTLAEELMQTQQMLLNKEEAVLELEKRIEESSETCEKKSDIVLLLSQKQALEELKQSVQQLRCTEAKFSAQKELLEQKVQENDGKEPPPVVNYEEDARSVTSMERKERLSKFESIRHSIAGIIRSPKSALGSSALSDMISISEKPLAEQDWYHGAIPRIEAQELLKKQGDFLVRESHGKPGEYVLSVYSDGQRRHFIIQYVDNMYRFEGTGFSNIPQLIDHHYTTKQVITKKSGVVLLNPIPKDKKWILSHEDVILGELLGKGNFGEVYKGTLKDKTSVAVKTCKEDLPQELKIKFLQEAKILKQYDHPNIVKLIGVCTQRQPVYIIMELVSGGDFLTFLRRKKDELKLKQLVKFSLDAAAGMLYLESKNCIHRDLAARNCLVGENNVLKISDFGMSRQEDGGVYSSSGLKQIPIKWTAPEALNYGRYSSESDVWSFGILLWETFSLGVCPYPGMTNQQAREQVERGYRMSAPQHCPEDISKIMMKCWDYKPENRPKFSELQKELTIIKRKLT
Epidermal growth factor receptor (Homo sapiens), P00533 [UNDEFINED MUTATION], sequence (P00533 whole entry, looked up, stated change not applied): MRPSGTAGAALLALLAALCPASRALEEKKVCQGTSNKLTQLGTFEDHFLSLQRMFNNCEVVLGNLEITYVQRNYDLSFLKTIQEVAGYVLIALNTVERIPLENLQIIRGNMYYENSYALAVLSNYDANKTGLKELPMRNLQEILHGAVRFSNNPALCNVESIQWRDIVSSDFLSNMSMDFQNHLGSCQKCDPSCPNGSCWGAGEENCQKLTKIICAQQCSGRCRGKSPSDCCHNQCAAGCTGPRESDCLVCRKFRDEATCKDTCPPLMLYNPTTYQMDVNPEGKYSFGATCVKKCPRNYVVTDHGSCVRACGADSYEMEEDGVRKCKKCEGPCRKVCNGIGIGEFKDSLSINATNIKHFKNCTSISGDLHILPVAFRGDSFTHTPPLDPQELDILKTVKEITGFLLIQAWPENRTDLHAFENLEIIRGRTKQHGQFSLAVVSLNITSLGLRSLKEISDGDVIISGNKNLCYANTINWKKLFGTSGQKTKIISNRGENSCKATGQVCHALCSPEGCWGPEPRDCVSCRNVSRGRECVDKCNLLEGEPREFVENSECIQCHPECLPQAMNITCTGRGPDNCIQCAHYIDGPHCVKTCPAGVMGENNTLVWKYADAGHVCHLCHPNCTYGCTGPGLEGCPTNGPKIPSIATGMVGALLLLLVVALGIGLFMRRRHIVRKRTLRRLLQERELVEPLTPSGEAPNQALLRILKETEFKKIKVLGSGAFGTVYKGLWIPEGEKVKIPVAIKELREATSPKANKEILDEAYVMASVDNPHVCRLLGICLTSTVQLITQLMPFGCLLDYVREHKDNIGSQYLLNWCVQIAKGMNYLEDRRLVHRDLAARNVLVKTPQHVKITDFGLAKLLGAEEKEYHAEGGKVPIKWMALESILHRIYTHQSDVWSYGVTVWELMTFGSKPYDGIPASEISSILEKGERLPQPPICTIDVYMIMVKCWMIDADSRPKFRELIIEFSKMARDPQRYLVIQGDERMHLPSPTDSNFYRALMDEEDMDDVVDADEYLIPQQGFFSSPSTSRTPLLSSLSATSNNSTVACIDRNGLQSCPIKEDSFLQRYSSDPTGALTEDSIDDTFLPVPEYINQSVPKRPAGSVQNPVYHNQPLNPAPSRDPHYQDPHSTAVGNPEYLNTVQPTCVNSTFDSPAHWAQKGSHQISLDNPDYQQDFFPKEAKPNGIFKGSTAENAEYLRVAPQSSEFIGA
Serine/threonine-protein kinase B-raf (Homo sapiens), sequence (P15056 whole entry): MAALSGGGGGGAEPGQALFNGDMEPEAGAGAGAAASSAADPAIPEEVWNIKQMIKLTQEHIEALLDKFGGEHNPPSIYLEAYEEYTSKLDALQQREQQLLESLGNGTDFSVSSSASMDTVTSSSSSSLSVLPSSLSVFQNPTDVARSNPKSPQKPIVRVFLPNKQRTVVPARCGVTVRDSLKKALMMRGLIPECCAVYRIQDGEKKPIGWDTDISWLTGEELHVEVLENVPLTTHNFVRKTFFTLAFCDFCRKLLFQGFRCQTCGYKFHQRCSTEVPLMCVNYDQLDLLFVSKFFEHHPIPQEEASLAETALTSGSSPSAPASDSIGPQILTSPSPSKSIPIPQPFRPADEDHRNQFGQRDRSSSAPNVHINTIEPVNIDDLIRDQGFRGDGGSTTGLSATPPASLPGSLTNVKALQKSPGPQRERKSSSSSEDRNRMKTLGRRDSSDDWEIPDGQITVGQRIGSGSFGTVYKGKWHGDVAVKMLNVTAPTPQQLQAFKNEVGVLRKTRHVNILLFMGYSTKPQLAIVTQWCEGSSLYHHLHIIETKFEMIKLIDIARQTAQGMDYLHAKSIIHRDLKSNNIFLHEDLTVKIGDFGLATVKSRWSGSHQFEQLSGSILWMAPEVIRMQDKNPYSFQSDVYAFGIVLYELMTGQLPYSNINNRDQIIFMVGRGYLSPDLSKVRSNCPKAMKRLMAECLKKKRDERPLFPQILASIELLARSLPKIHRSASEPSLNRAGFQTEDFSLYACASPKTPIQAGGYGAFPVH
Phosphatidylinositol 4,5-bisphosphate 3-kinase catalytic subunit beta isoform (Homo sapiens), sequence (P42338 whole entry, looked up, canonical isoform): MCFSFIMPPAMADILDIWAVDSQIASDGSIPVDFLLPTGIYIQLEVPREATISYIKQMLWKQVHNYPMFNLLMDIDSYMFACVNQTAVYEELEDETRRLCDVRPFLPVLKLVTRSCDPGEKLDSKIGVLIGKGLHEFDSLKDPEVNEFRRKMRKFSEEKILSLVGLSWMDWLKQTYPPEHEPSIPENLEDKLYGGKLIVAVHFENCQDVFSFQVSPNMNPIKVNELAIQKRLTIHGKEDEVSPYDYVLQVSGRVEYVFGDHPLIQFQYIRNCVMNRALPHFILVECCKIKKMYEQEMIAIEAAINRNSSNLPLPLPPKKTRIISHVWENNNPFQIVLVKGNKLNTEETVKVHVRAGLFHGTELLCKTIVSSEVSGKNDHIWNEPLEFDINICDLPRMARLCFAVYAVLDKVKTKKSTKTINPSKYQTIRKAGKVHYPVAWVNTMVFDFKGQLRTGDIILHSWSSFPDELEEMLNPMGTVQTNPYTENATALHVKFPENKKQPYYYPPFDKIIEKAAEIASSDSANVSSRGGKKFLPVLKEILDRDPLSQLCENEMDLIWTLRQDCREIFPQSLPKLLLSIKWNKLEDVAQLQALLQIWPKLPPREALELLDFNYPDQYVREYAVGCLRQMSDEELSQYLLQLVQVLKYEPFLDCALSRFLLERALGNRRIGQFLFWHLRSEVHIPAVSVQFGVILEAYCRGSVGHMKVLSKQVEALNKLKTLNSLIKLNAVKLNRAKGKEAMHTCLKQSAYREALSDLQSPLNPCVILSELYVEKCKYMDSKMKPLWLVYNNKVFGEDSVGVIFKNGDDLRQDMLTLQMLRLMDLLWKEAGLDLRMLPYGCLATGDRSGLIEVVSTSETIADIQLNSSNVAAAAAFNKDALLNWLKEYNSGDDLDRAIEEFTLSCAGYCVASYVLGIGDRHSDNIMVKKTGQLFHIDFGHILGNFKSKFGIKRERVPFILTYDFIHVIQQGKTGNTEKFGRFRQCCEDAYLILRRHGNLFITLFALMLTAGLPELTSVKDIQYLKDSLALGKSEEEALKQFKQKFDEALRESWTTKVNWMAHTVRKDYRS
Serine/threonine-protein kinase B-raf (Homo sapiens), P15056 [V600E], sequence (P15056 whole entry V600E): as the sequence (P15056 whole entry) above, with V600E counted along it

CC(=O)Nc1cccc(-n2c(=O)n(C3CC3)c(=O)c3c(Nc4ccc(I)cc4F)n(C)c(=O)c(C)c32)c1
% of control [1]: 98%

O=C(NOC[C@H](O)CO)c1ccc(F)c(F)c1Nc1ccc(I)cc1F
% of control [2]: 94%

COc1cc(N(C)c2ccnc3ccc(C(F)(F)F)cc23)cc(OC)c1OC
% binding [3]: 92%
% binding [4]: 78%
% binding [5]: 71%

Nc1cnc(N2CCc3cc(S(=O)(=O)Nc4c(F)cc(Cl)cc4F)cc(N4CCCC4=O)c32)nc1 [TP-020n]
% of control [6]: 100%
% of control [7]: 100%
% of control [8]: 87%

C=CC(=O)Nc1cc(-n2c(=O)ccc3cnc4ccc(-c5ccc(NS(C)(=O)=O)cc5)cc4c32)ccc1C
% of control ([9]; at 1 µM): 100%
% of control ([9]; at 10 µM): 89%
